Measured values: publication PMC5786788, “Antimicrobial Octapeptin C4 Analogues Active against Cryptococcus Species” (Antimicrobial Agents and Chemotherapy, 2018)
Read-outs that look alike come from different tables or passages of the source.

Tests used:
Experiment in all cases: microbe, parasite or virus in culture
[1] = tested on: C. neoformans var. neoformans; conditions: Cryptococcus neoformans
Experimental: (§1) The MICs of the yeast strains for PMB, PME, and octapeptin C4 and its derivatives were determined in accordance with CLSI M27-A2 guidelines using YNB (Becton Dickinson, USA) medium supplemented with 10 mM ammonium sulfate and 2% glucose, a final inoculum concentration of 1.5 × 10^3 to 2.0 × 10^3 cells/ml, and incubation at 35°C for 72 h ([39]). […] The MICs for PMB, PME, and octapeptin C4 for A. fumigatus were determined in accordance with the CLSI M38-A2 guidelines ([40]) using synthetic RPMI 1640 medium (with glutamine, without bicarbonate and with phenol red; Life Technologies, USA). The final inoculum concentration was 0.4 × 10^4 to 5 × 10^4 cells/ml, with incubation at 35°C for 48 h. […] All assays were completed in triplicate. Fluconazole was used as a positive control where the MIC was determined at both 50% growth (in accordance with CLSI M27-A2 guidelines) and when there was a “no visible growth” reading.

[2] = tested on: C. neoformans var. gattii
Experimental: as §1

[3] = tested on: C. neoformans var. grubii
Experimental: The MICs of the yeast strains for PMB, PME, and octapeptin C4 and its derivatives were determined in accordance with CLSI M27-A2 guidelines using YNB (Becton Dickinson, USA) medium supplemented with 10 mM ammonium sulfate and 2% glucose, a final inoculum concentration of 1.5 × 10^3 to 2.0 × 10^3 cells/ml, and incubation at 35°C for 72 h ([39]). […] The MICs for PMB, PME, and octapeptin C4 for A. fumigatus were determined in accordance with the CLSI M38-A2 guidelines ([40]) using synthetic RPMI 1640 medium (with glutamine, without bicarbonate and with phenol red; Life Technologies, USA). The final inoculum concentration was 0.4 × 10^4 to 5 × 10^4 cells/ml, with incubation at 35°C for 48 h. […] All assays were completed in triplicate. Fluconazole was used as a positive control where the MIC was determined at both 50% growth (in accordance with CLSI M27-A2 guidelines) and when there was a “no visible growth” reading. […]

Measured: MIC

OC(Cn1cncn1)(Cn1cncn1)c1ccc(F)cc1F [Fluconazole, fluconazole]
6.5 µg/mL: [3]; Cryptococcus neoformans, read-out: MIC-2, strain 500 (USA), 50% fungal growth | [3]; Cryptococcus neoformans, read-out: MIC-2, strain 502 (ARR3+ USA), 50% fungal growth
25 µg/mL: [1]; strain WM 02.37 (Canada), no visible growth | [1]; strain WM 2207 (USA, environmental), no visible growth | [2]; Cryptococcus neoformans, read-out: MIC-2, strain R267 (Vancouver Island), 50% fungal growth | [2]; strain 96/1120-1 (Brain HIV2 France), no visible growth | [2]; strain 96/1120-2 (CSF HIV2 France), no visible growth | [3]; Cryptococcus neoformans, strain 486 (USA), no visible growth | [3]; Cryptococcus neoformans, strain 488 (AIDS+, pre-HAART USA), no visible growth | [3]; Cryptococcus neoformans, strain 525 (India), no visible growth | [3]; Cryptococcus neoformans, strain 1196 (Botswana CSF/AIDS), no visible growth | [3]; strain 1189 (USA BAL/HIV), no visible growth
0.39 µg/mL: [2]; Cryptococcus neoformans, ATCC32608, read-out: MIC-2, strain ATCC 32608 (NIH 191), 50% fungal growth
< 25 µg/mL: [2]; Cryptococcus neoformans, strain R267 (Vancouver Island), no visible growth
0.78 µg/mL: [2]; Cryptococcus neoformans, ATCC32269, read-out: MIC-2, strain ATCC 32269, 50% fungal growth | [2]; Cryptococcus neoformans, ATCC32608, strain ATCC 32608 (NIH 191), no visible growth | [2]; Cryptococcus neoformans, read-out: MIC-2, strain R268 (Vancouver Island), 50% fungal growth
6.25 µg/mL: [1]; read-out: MIC-2, strain WM 01.127 (USA), 50% fungal growth | [1]; read-out: MIC-2, strain WM 02.142 (Russia), 50% fungal growth | [1]; read-out: MIC-2, strain WM 02.143 (Russia), 50% fungal growth | [1]; read-out: MIC-2, strain WM 02.37 (Canada), 50% fungal growth | [1]; read-out: MIC-2, strain WM 04.168 (Chile), 50% fungal growth | [1]; read-out: MIC-2, strain WM 04.171 (Thailand, environmental), 50% fungal growth | [1]; read-out: MIC-2, strain WM 05.467 (Brazil, environmental), 50% fungal growth | [1]; read-out: MIC-2, strain WM 1706 (Argentina), 50% fungal growth | [1]; strain WM 02.141 (Russia), no visible growth | [1]; strain WM 02.52 (Canada), no visible growth | [1]; strain WM 04.171 (Thailand, environmental), no visible growth | [1]; strain WM 05.515 (Peru), no visible growth | [1]; strain WM 09.109 (Italy, environmental), no visible growth | [1]; strain WM 10.119 (Australia), no visible growth | [1]; strain WM 629 (Australia), no visible growth | [1]; strain WM 1740 (Chile), no visible growth | [1]; strain WM 2530 (USA), no visible growth | [2]; Cryptococcus neoformans, ATCC32609, strain ATCC 32609 (NIH444), no visible growth | [2]; Cryptococcus neoformans, ATCC34878, strain ATCC 34878, no visible growth | [2]; Cryptococcus neoformans, ATCC34882, strain ATCC 34882, no visible growth | [2]; Cryptococcus neoformans, read-out: MIC-2, strain R266 (Vancouver Island), 50% fungal growth | [2]; Cryptococcus neoformans, strain R270 (Vancouver Island), no visible growth | [2]; read-out: MIC-2, strain 96/1120-2 (CSF HIV2 France), 50% fungal growth | [3]; Cryptococcus neoformans, read-out: MIC-2, strain 490 (USA), 50% fungal growth | [3]; Cryptococcus neoformans, read-out: MIC-2, strain 496 (USA), 50% fungal growth | [3]; Cryptococcus neoformans, read-out: MIC-2, strain 505 (India), 50% fungal growth | [3]; Cryptococcus neoformans, read-out: MIC-2, strain 507 (India), 50% fungal growth | [3]; Cryptococcus neoformans, read-out: MIC-2, strain 512 (India), 50% fungal growth | [3]; Cryptococcus neoformans, read-out: MIC-2, strain 516 (India), 50% fungal growth | [3]; Cryptococcus neoformans, read-out: MIC-2, strain 518 (VNI India), 50% fungal growth | [3]; Cryptococcus neoformans, read-out: MIC-2, strain 522 (India), 50% fungal growth | [3]; Cryptococcus neoformans, read-out: MIC-2, strain H99O (lab strain), 50% fungal growth | [3]; Cryptococcus neoformans, strain 505 (India), no visible growth | [3]; Cryptococcus neoformans, strain 1194 (Italy), no visible growth | [3]; Cryptococcus neoformans, strain H99 XL (lab strain), no visible growth | [3]; Cryptococcus neoformans, strain H99 stud (lab strain), no visible growth
3.13 µg/mL: [1]; read-out: MIC-2, strain WM 02.141 (Russia), 50% fungal growth | [1]; read-out: MIC-2, strain WM 02.52 (Canada), 50% fungal growth | [1]; read-out: MIC-2, strain WM 09.109 (Italy, environmental), 50% fungal growth | [1]; read-out: MIC-2, strain WM 09.112 (USA), 50% fungal growth | [1]; read-out: MIC-2, strain WM 10.119 (Australia), 50% fungal growth | [1]; read-out: MIC-2, strain WM 629 (Australia), 50% fungal growth | [1]; read-out: MIC-2, strain WM 1740 (Chile), 50% fungal growth | [1]; read-out: MIC-2, strain WM 2530 (USA), 50% fungal growth | [1]; strain WM 2242 (USA), no visible growth | [2]; Cryptococcus neoformans, ATCC24066, strain ATCC 24066 (NIH 18), no visible growth | [2]; Cryptococcus neoformans, ATCC32609, read-out: MIC-2, strain ATCC 32609 (NIH444), 50% fungal growth | [2]; Cryptococcus neoformans, ATCC34878, read-out: MIC-2, strain ATCC 34878, 50% fungal growth | [2]; Cryptococcus neoformans, read-out: MIC-2, strain B5742 (VGIV CSF India), 50% fungal growth | [2]; Cryptococcus neoformans, read-out: MIC-2, strain R269 (Vancouver Island), 50% fungal growth | [2]; Cryptococcus neoformans, read-out: MIC-2, strain R270 (Vancouver Island), 50% fungal growth | [2]; read-out: MIC-2, strain 96/1120-1 (Brain HIV2 France), 50% fungal growth | [2]; read-out: MIC-2, strain B5748 (VGIV HIV India), 50% fungal growth | [3]; Cryptococcus neoformans, read-out: MIC-2, strain 1188 (Japan lung), 50% fungal growth | [3]; Cryptococcus neoformans, read-out: MIC-2, strain 1197 (Botswana CSF/AIDS), 50% fungal growth | [3]; Cryptococcus neoformans, read-out: MIC-2, strain 1199 (Uganda CSF/HIV+ VNII), 50% fungal growth | [3]; Cryptococcus neoformans, read-out: MIC-2, strain H99 XL (lab strain), 50% fungal growth | [3]; Cryptococcus neoformans, read-out: MIC-2, strain H99 stud (lab strain), 50% fungal growth | [3]; Cryptococcus neoformans, strain 510 (VNII India), no visible growth
1.56 µg/mL: [1]; read-out: MIC-2, strain WM 05.515 (Peru), 50% fungal growth | [1]; read-out: MIC-2, strain WM 2242 (USA), 50% fungal growth | [2]; Cryptococcus neoformans, ATCC24066, read-out: MIC-2, strain ATCC 24066 (NIH 18), 50% fungal growth | [2]; Cryptococcus neoformans, ATCC32269, strain ATCC 32269, no visible growth | [2]; Cryptococcus neoformans, ATCC34882, read-out: MIC-2, strain ATCC 34882, 50% fungal growth | [2]; Cryptococcus neoformans, read-out: MIC-2, strain 93/980 (CSF France), 50% fungal growth | [2]; Cryptococcus neoformans, strain R268 (Vancouver Island), no visible growth | [3]; Cryptococcus neoformans, read-out: MIC-2, strain 510 (VNII India), 50% fungal growth | [3]; Cryptococcus neoformans, read-out: MIC-2, strain 1194 (Italy), 50% fungal growth
12.5 µg/mL: [1]; read-out: MIC-2, strain WM 2207 (USA, environmental), 50% fungal growth | [1]; strain WM 01.127 (USA), no visible growth | [1]; strain WM 02.142 (Russia), no visible growth | [1]; strain WM 02.143 (Russia), no visible growth | [1]; strain WM 04.168 (Chile), no visible growth | [1]; strain WM 05.467 (Brazil, environmental), no visible growth | [1]; strain WM 09.112 (USA), no visible growth | [1]; strain WM 1706 (Argentina), no visible growth | [2]; Cryptococcus neoformans, strain R266 (Vancouver Island), no visible growth | [2]; Cryptococcus neoformans, strain R269 (Vancouver Island), no visible growth | [2]; strain B5748 (VGIV HIV India), no visible growth | [3]; Cryptococcus neoformans, read-out: MIC-2, strain 486 (USA), 50% fungal growth | [3]; Cryptococcus neoformans, read-out: MIC-2, strain 488 (AIDS+, pre-HAART USA), 50% fungal growth | [3]; Cryptococcus neoformans, read-out: MIC-2, strain 525 (India), 50% fungal growth | [3]; Cryptococcus neoformans, read-out: MIC-2, strain 1196 (Botswana CSF/AIDS), 50% fungal growth | [3]; Cryptococcus neoformans, strain 490 (USA), no visible growth | [3]; Cryptococcus neoformans, strain 496 (USA), no visible growth | [3]; Cryptococcus neoformans, strain 500 (USA), no visible growth | [3]; Cryptococcus neoformans, strain 502 (ARR3+ USA), no visible growth | [3]; Cryptococcus neoformans, strain 507 (India), no visible growth | [3]; Cryptococcus neoformans, strain 512 (India), no visible growth | [3]; Cryptococcus neoformans, strain 516 (India), no visible growth | [3]; Cryptococcus neoformans, strain 518 (VNI India), no visible growth | [3]; Cryptococcus neoformans, strain 522 (India), no visible growth | [3]; Cryptococcus neoformans, strain 1188 (Japan lung), no visible growth | [3]; Cryptococcus neoformans, strain 1197 (Botswana CSF/AIDS), no visible growth | [3]; Cryptococcus neoformans, strain 1199 (Uganda CSF/HIV+ VNII), no visible growth | [3]; Cryptococcus neoformans, strain H99O (lab strain), no visible growth | [3]; read-out: MIC-2, strain 1189 (USA BAL/HIV), 50% fungal growth
